The compounds below were run against human activated kallikrein enzyme (Homo sapiens, UniProt P03952) (assay: Plasma kallikrein inhibition, fluorogenic PFR-AMC substrate, 500 pM activated kallikrein format). Conditions: 500 pM activated kallikrein, 300 uM PFR-AMC, 30 min preincubation, 10 min reaction; read-out: Primary Dose Response Assay: Average EC50.
Assay type: biochemical
In short: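 Enzyme at 500 pM preincubated 30 min RT with inhibitors in 20 mM Tris pH 7.5, 1 mM EDTA, 150 mM NaCl, 0.1% PEG-400, 0.1% Triton X-100. Reaction started with 300 uM PFR-AMC, run 10 min RT; fluorescence read at 460 nm emission, 380 nm excitation. EC50 reported in ranges.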

Chain of human activated kallikrein enzyme (P03952 391-638 limits assumed): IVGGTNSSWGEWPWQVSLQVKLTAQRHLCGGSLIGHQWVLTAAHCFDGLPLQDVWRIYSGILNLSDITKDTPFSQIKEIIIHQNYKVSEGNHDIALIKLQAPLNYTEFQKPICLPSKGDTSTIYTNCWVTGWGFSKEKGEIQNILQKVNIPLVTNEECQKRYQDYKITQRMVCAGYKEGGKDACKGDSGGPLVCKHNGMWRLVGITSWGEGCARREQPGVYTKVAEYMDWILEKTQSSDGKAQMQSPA
Chain of human activated kallikrein enzyme (P03952 20-390 partner limits assumed): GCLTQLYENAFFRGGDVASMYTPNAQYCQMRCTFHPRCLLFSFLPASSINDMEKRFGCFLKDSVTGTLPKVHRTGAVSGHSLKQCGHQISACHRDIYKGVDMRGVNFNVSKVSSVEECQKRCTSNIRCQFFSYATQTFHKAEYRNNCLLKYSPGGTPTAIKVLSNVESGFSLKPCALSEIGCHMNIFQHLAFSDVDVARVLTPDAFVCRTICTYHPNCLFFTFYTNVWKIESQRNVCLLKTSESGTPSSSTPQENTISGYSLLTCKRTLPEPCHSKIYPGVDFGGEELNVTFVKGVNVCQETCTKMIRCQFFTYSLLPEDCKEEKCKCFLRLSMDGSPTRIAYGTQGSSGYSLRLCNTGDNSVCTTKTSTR

EC50 | Compound
< 1 nM | Cc1ccnc([C@H]2C[C@@H]2C(=O)Nc2cc(C#N)cc(NCc3cn4cc(C5CC5)cc(N5CC(=O)N(C)C5=O)c4n3)c2)n1 [Example I-655, (1S,2S)—N-(3-cyano-5-(((6-cyclopropyl-8-(3-methyl-2,4-dioxoimidazolidin-1-yl)imidazo[1,2-a]pyridin-2-yl)methyl)amino)phenyl)-2-(4-methylpyrimidin-2-yl)cyclopropane-1-carboxamide]
1 to 10 nM | CN1CC(=O)N(c2cc(C3CC3)cn3cc(CNc4cc(NC(=O)[C@H]5C[C@@H]5c5cccc(Cl)c5)ncn4)nc23)C1=O [Example I-171, (1S,2S)-2-(3-chlorophenyl)-N-(6-(((6-cyclopropyl-8-(3-methyl-2,5-dioxoimidazolidin-1-yl)imidazo[1,2-a]pyridin-2-yl)methyl)amino)pyrimidin-4-yl)cyclopropane-1-carboxamide]
< 1 nM | Cc1cc(NCc2cn3cc(C4CC4)cc(N4CC(=O)N(C)C4=O)c3n2)cc(NC(=O)[C@H]2C[C@@H]2c2nccc(C)n2)n1 [Example I-642, (1S,2S)—N-(4-(((6-cyclopropyl-8-(3-methyl-2,4-dioxoimidazolidin-1-yl)imidazo[1,2-a]pyridin-2-yl)methyl)amino)-6-methylpyridin-2-yl)-2-(4-methylpyrimidin-2-yl)cyclopropane-1-carboxamide]
100 to 1000 nM | CC(C)(C)OC(=O)Nc1cc(C2CC2)cn2cc(CNc3cc(NC(=O)[C@H]4C[C@@H]4c4cccc(Cl)c4)ncn3)nc12 [Example I-156, tert-butyl (2-(((6-((15,2S)-2-(3-chlorophenyl)cyclopropane-1-carboxamido)pyrimidin-4-yl)amino)methyl)-6-cyclopropylimidazo[1,2-a]pyridin-8-yl)carbamate]
1 to 10 nM | COC(=O)C1CN(c2cc(C3CC3)cn3cc(CNc4cc(NC(=O)[C@H]5C[C@@H]5c5cccc(Cl)c5)ncn4)nc23)CCN1C (stereo partly drawn) [Example I-8, methyl 4-(2-(((6-((15,2S)-2-(3-chlorophenyl)cyclopropane-1-carboxamido)pyrimidin-4-yl)amino)methyl)-6-cyclopropylimidazo[1,2-α]pyridin-8-yl)-1-methylpiperazine-2-carboxylate]
100 to 1000 nM | O=C(Nc1cc(NCc2cn3cc(C4CC4)ccc3n2)ncn1)[C@H]1C[C@@H]1c1cc(Cl)ccn1 (single isomer, unassigned) [Example I-266, rac-(1S*,2S*)-2-(4-chloropyridin-2-yl)-N-(6-(((6-cyclopropylimidazo[1,2-a]pyridin-2-yl)methyl)amino)pyrimidin-4-yl)cyclopropane-1-carboxamide]
1000 to 6000 nM | Nc1cc(Cl)cc([C@H]2C[C@@H]2C(=O)Nc2cc(NCc3cn4cc(C5CC5)ccc4n3)ncn2)c1 (single isomer, unassigned) [Example I-258, rac-(1S*,2S*)-2-(3-amino-5-chlorophenyl)-N-(6-(((6-cyclopropylimidazo[1,2-a]pyridin-2-yl)methyl)amino)pyrimidin-4-yl)cyclopropane-1-carboxamide]
10 to 100 nM | O=C(Nc1cc(NCc2cn3cc(C4CC4)ccc3n2)ccn1)[C@H]1C[C@@H]1c1cc(Cl)cnn1 (racemic) [Example I-211, rac-(1S*,2S*)-2-(5-chloropyridazin-3-yl)-N-(4-(((6-cyclopropylimidazo[1,2-a]pyridin-2-yl)methyl)amino)pyridin-2-yl)cyclopropane-1-carboxamide]
1 to 10 nM | O=C1CN(c2cc(C3CC3)cn3cc(CNc4cc(NC(=O)[C@H]5C[C@@H]5c5cccc(Cl)c5)ncn4)nc23)CCN1 [Example I-149, (1S,2S)-2-(3-chlorophenyl)-N-(6-(((6-cyclopropyl-8-(3-oxopiperazin-1-yl)imidazo[1,2-a]pyridin-2-yl)methyl)amino)pyrimidin-4-yl)cyclopropane-1-carboxamide]

More lines, now with the values behind:

Compound | EC50
N#Cc1ccc(Cl)cc1[C@H]1C[C@@H]1C(=O)Nc1nccc2nn(Cc3cn4cc(C5CC5)ccc4n3)cc12 (racemic) [Example 579, rac-(1S*,2S*)-2-(5-chloro-2-cyanophenyl)-N-(2-((6-cyclopropylimidazo[1,2-a]pyridin-2-yl)methyl)-2H-pyrazolo[4,3-c]pyridin-4-yl)cyclopropane-1-carboxamide] | < 1 nM
Nc1ccc([C@H]2C[C@@H]2C(=O)Nc2cc(NCc3cn4cc(C5CC5)ccc4n3)ncn2)cc1Cl (racemic) [Example 278, rac-(1S*,2S*)-2-(4-amino-3-chlorophenyl)-N-(6-(((6-cyclopropylimidazo[1,2-a]pyridin-2-yl)methyl)amino)pyrimidin-4-yl)cyclopropane-1-carboxamide] | 100 to 1000 nM
O=C(Nc1nccc2cn(Cc3cn4cc(C5CC5)ccc4n3)nc12)[C@H]1C[C@@H]1c1cccc(Cl)c1 (racemic) [Example 592, rac-(1S*,2S*)-2-(3-chlorophenyl)-N-(2-((6-cyclopropylimidazo[1,2-a]pyridin-2-yl)methyl)-2H-pyrazolo[3,4-c]pyridin-7-yl)cyclopropane-1-carboxamide] | 1 to 10 nM
O=C(Nc1nnc(NCc2cn3cc(C4CC4)ccc3n2)s1)[C@H]1C[C@@H]1c1cccc(Cl)c1 [Example 606, (1S,2S)-2-(3-chlorophenyl)-N-(5-(((6-cyclopropylimidazo[1,2-a]pyridin-2-yl)methyl)amino)-1,3,4-thiadiazol-2-yl)cyclopropane-1-carboxamide] | > 6000 nM
O=C(Nc1cc(NCc2cn3cc(C4CC4)ccc3n2)ncn1)[C@H]1C[C@@H]1c1cc(Cl)ccc1C(F)(F)F (racemic) [Example 52, rac-(1S*,2S*)-2-(5-chloro-2-(trifluoromethyl)phenyl)-N-(6-(((6-cyclopropylimidazo[1,2-α]pyridin-2-yl)methyl)amino)pyrimidin-4-yl)cyclopropane-1-carboxamide] | 100 to 1000 nM
Cc1ccnc([C@H]2C[C@@H]2C(=O)Nc2ncnc3nn(Cc4cn5cc(C6CC6)cc(N6CC(=O)N(C)C6=O)c5n4)cc23)n1 (racemic) [Example 632, rac-(1S*,2S*)—N-(2-((6-cyclopropyl-8-(3-methyl-2,4-dioxoimidazolidin-1-yl)imidazo[1,2-a]pyridin-2-yl)methyl)-2H-pyrazolo[3,4-d]pyrimidin-4-yl)-2-(4-methylpyrimidin-2-yl)cyclo propane-1-carboxamide] | < 1 nM
O=C(Nc1cc(NCc2cn3cc(C4CC4)ccc3n2)ncn1)[C@H]1C[C@@H]1c1cc(Cl)ccc1-n1cnnn1 (racemic) [Example 316, rac-(1S*,2S*)-2-(5-chloro-2-(1H-tetrazol-1-yl)phenyl)-N-(6-(((6-cyclopropylimidazo[1,2-a]pyridin-2-yl)methyl)amino)pyrimidin-4-yl)cyclopropane-1-carboxamide] | 1 to 10 nM
COc1ccc(CN2C(=O)CN(c3cc(C4CC4)cn4cc(CNc5cc(NC(=O)[C@H]6C[C@@H]6c6cccc(Cl)c6)ncn5)nc34)C2=O)cc1 [Example 397, (1S,2S)-2-(3-chlorophenyl)-N-(6-(((6-cyclopropyl-8-(3-(4-methoxybenzyl)-2,4-dioxoimidazolidin-1-yl)imidazo[1,2-a]pyridin-2-yl)methyl)amino)pyrimidin-4-yl)cyclopropane-1-carboxamide] | 10 to 100 nM
COc1cc(NC(=O)[C@H]2C[C@@H]2c2nccc(C)n2)nc(OCc2cn3cc(C4CC4)cc(N4CC(=O)N(C)C4=O)c3n2)c1 [Example 38, (1S,2S)-N-(6-((6-cyclopropyl-8-(3-methyl-2,4-dioxoimidazolidin-1-yl)imidazo[1,2-α]pyridin-2-yl)methoxy)-4-methoxypyridin-2-yl)-2-(4-methylpyrimidin-2-yl)cyclopropane-1-carboxamide] | 1 to 10 nM
Cc1ccnc([C@H]2C[C@@H]2C(=O)Nc2cc(N[C@H](C)c3cn4cc(C(C)F)cc(N5CC(=O)N(C)C5=O)c4n3)ncn2)n1 (stereo partly drawn) [Example 530, (1S,2S)-N-(6-(((1R)-1-(6-(1-fluoroethyl)-8-(3-methyl-2,4-dioxoimidazolidin-1-yl)imidazo[1,2-a]pyridin-2-yl)ethyl)amino)pyrimidin-4-yl)-2-(4-methylpyrimidin-2-yl)cyclopropane-1-carboxamide] | < 1 nM
Cc1ccnc([C@H]2C[C@@H]2C(=O)Nc2ncc3oc(=O)n(Cc4cn5cc(C6CC6)cc(N6CC(=O)N(C)C6=O)c5n4)c3n2)n1 (racemic) [Example 626, rac-(1S*,2S*)—N-(3-((6-cyclopropyl-8-(3-methyl-2,4-dioxoimidazolidin-1-yl)imidazo[1,2-a]pyridin-2-yl)methyl)-2-oxo-2,3-dihydrooxazolo[4,5-d]pyrimidin-5-yl)-2-(4-methylpyrimidin-2-yl)cyclopropane-1-carboxamide] | < 1 nM
N#Cc1ccc(Cl)cc1C1CC1C(=O)Nc1cc(NCc2cn3cc(C4CC4)cc(N4CCCC4=O)c3n2)ncn1 (stereo not drawn) [Example 335] | 100 to 1000 nM
O=C(Nc1nccnc1OCc1cn2cc(C3CC3)ccc2n1)[C@H]1C[C@@H]1c1cccc(Cl)c1 [Example 570, (1S,2S)-2-(3-chlorophenyl)-N-(3-((6-cyclopropylimidazo[1,2-a]pyridin-2-yl)methoxy)pyrazin-2-yl)cyclopropane-1-carboxamide] | 10 to 100 nM
Cc1ccnc([C@H]2C[C@@H]2C(=O)Nc2cc(C(O)Cc3cn4cc(C5CC5)cc(N5CC(=O)N(C)C5=O)c4n3)nc(C)n2)n1 (stereo partly drawn) [Example 674, (1S,2S)—N-(6-(2-(6-cyclopropyl-8-(3-methyl-2,4-dioxoimidazolidin-1-yl)imidazo[1,2-a]pyridin-2-yl)-1-hydroxyethyl)-2-methylpyrimidin-4-yl)-2-(4-methylpyrimidin-2-yl)cyclopropane-1-carboxamide] | 10 to 100 nM
O=C(Nc1cc(N(CCO)Cc2cn3cc(C4CC4)ccc3n2)ncn1)[C@H]1C[C@@H]1c1cc(Cl)ccn1 [Example 328, (1S,2S)-2-(4-chloropyridin-2-yl)-N-(6-(((6-cyclopropylimidazo[1,2-a]pyridin-2-yl)methyl)(2-hydroxyethyl)amino)pyrimidin-4-yl)cyclopropane-1-carboxamide] | 10 to 100 nM
